Results reported in ChEMBL document CHEMBL4665725, “Identification of potent inhibitors of the sortilin-progranulin interaction” (Bioorg Med Chem Lett, 2020).
Values after ≈ are worked out from the molar mass of the structure shown.

Key:
Sortilin/Progranulin [1] = molecular target: T1, Sortilin/Progranulin (Homo sapiens, UniProt P28799+Q99523); assay: Inhibition of SORT1 (unknown origin)-GRN (unknown origin) protein-protein interaction by HTRF assay
T1 sequence (Q99523 whole entry): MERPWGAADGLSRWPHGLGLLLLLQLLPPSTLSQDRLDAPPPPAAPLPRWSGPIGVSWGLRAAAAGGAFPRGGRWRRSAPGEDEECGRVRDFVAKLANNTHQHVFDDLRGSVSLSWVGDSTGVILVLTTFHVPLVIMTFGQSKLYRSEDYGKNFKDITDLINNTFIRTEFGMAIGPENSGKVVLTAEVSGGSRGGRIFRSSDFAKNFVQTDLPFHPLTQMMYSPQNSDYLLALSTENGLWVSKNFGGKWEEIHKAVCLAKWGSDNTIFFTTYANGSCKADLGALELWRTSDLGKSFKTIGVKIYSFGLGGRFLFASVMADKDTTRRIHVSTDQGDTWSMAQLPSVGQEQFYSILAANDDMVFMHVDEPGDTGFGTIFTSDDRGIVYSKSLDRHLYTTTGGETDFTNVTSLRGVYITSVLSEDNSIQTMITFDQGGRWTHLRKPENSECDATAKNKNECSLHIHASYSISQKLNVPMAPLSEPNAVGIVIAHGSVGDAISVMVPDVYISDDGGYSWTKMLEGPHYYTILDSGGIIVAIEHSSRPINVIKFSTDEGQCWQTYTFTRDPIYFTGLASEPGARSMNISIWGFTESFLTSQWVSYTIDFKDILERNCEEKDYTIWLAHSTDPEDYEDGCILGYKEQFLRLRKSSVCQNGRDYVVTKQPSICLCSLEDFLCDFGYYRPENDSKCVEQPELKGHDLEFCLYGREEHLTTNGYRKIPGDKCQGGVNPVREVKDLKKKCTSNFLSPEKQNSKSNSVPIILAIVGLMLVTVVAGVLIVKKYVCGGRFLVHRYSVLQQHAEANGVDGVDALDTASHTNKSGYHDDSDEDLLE
T1 sequence (P28799 whole entry): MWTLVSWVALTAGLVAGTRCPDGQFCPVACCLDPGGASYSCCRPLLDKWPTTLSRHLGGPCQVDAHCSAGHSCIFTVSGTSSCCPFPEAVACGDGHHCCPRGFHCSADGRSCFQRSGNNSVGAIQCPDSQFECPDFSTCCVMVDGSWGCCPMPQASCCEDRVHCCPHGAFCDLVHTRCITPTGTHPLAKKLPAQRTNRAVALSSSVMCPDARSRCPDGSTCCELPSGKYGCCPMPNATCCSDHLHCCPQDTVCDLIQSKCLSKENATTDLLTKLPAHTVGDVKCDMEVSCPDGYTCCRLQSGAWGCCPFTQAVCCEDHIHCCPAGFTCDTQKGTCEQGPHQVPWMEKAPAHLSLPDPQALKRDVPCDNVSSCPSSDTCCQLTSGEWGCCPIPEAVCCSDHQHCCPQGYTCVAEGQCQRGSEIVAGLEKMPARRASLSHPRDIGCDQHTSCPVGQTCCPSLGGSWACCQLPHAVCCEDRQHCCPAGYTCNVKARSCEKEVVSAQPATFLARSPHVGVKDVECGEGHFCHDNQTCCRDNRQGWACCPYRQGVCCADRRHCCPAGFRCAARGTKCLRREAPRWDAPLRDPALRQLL

[2] = Protein binding in rat plasma; type: ADME, cell-free; settings: read-out: PPB (converted)
[3] = Solubility of the compound at pH 2; type: physicochemical; settings: buffer
[4] = Solubility of the compound at pH 7; type: physicochemical; settings: buffer
P-gp [5] = assay: Substrate activity at rat P-gp assessed as efflux ratio; type: ADME; settings: not told
P-gp [6] = assay: Substrate activity at human P-gp in MDR1 cells assessed as efflux ratio; type: ADME, cell-based
[7] = Apparent permeability of the compound; type: ADME; settings: not told
[8] = Clearance in rat; type: ADME; settings: in vivo
[9] = Unbound clearance in rat; type: ADME; settings: in vivo
[10] = Half life in rat; type: ADME; settings: in vivo
[11] = Oral bioavailability in rat; type: ADME, organism-based; settings: in vivo
Sortilin/Progranulin [12] = molecular target: T1, Sortilin/Progranulin; assay: Inhibition of SORT1 (unknown origin)-GRN (unknown origin) protein-protein interaction assessed as increase in progranulin level by cell-based ELISA

Row | Structure (SMILES) | IC50 (Sortilin/Progranulin [1]) | other results
1 | CC(C)(C)CC[C@H](NC(=O)c1cc(Cl)cc(Cl)c1)C(=O)O | 0.17 µM | fraction unbound [2]: 0.0028; solubility [3]: 69 µM (≈ 22.9 µg/mL); solubility [4]: 134 µM (≈ 44.5 µg/mL); efflux ratio (P-gp [5]): 3.9; efflux ratio (P-gp [6]): 1.8; Papp [7]: 23 ×10⁻⁶ cm/s; clearance [8]: 0.6 mL/min/kg; CL free [9]: 215 mL/min/kg; half-life [10]: 5.9 h; bioavailability [11]: 100%; IC50 (Sortilin/Progranulin [12]): 0.65 µM
2 | CC(C)C[C@H](NC(=O)C1CCCC1)C(=O)O | 25.3 µM | –
3 | Cn1nc(C(C)(C)C)cc1C(=O)O | 8.3 µM | –
4 | CC(C)C[C@H](NC(=O)c1cnn(C)c1)C(=O)O | 5.3 µM | –
5 | COc1cccc(C(=O)N[C@@H](CC(C)C)C(=O)O)c1 | 6.8 µM | –
6 | CC(C)(C)c1cc(C(=O)O)n(Cc2ccccc2)n1 | 2 µM | –
7 | CC(C)(C)CC[C@H](NC(=O)c1ccc(Oc2ccccc2)nc1)C(=O)O | 0.02 µM | fraction unbound [2]: 0.0077; solubility [3]: 126 µM (≈ 44.9 µg/mL); solubility [4]: 147 µM (≈ 52.4 µg/mL); efflux ratio (P-gp [5]): 3.5; efflux ratio (P-gp [6]): 2.2; Papp [7]: 7 ×10⁻⁶ cm/s; clearance [8]: 3.35 mL/min/kg; CL free [9]: 453 mL/min/kg; half-life [10]: 1.6 h; IC50 (Sortilin/Progranulin [12]): 0.12 µM
8 | CC(C)C[C@H](NC(c1cc(Cl)cc(Cl)c1)C(F)(F)F)C(=O)O (stereo not given in full) | 10.8 µM | –
9 | CC(C)(C)c1cc(C(=O)O)n(-c2ccccc2)n1 | 7.8 µM | –
10 | CC(C)(C)CC[C@H](NC(=O)c1cc(Cl)c[nH]1)C(=O)O | 0.09 µM | fraction unbound [2]: 0.0216; solubility [3]: 123 µM (≈ 35.3 µg/mL); solubility [4]: 135 µM (≈ 38.7 µg/mL); efflux ratio (P-gp [5]): 1.3; efflux ratio (P-gp [6]): 2; Papp [7]: 4.8 ×10⁻⁶ cm/s; clearance [8]: 2.8 mL/min/kg; CL free [9]: 134 mL/min/kg; half-life [10]: 1.5 h; IC50 (Sortilin/Progranulin [12]): 0.29 µM
11 | CC(C)(C)c1cc(C(=O)O)n(CCc2ccccc2)n1 | 5.3 µM | –
12 | CC(C)c1cc(C(=O)O)n(CCc2ccccc2)n1 | > 67 µM | –
13 | CC(C)C[C@H](NC(=O)c1cnc2ccccc2n1)C(=O)O | 6.3 µM | –
14 | CC(C)(C)c1cc(C(=O)O)n(Cc2nnc(-c3ccccc3)o2)n1 | 0.49 µM | –
15 | CC(C)(C)CCc1cc(C(=O)O)n(Cc2ccccc2)n1 | > 67 µM | –
16 | CC(C)(C)c1cc(C(=O)O)n(Cc2ccc(Oc3ccccc3)nc2)n1 | 2.1 µM | –
17 | CC(C)(C)Cc1cc(C(=O)O)n(Cc2ccccc2)n1 | 6.6 µM | –
18 | CC(C)C[C@H](NC(=O)C1CN(Cc2cc(Cl)cc(Cl)c2)CCO1)C(=O)O (stereo not given in full) | 14.4 µM | –
19 | CC(C)(C)C[C@H](NC(=O)c1ccc(Oc2ccccc2)nc1)C(=O)O | 0.065 µM | –
20 | CC(C)(C)c1cc(C(=O)O)n(Cc2cc(Cl)cc(Cl)c2)n1 | 2.1 µM | –
21 | CC(C)(C)c1cc(C(=O)O)n(Cc2ccc(-n3cccn3)nc2)n1 | 3 µM | –
22 | CC(C)C[C@H](NC(=O)C(C)(C)Cc1ccc(Cl)cc1)C(=O)O | 6.8 µM | –
23 | CC(C)(C)CC(NC(=O)c1cc(Cl)cc(Cl)c1)c1nn[nH]n1 (racemic) | 6.9 µM | –

Second part, led by results:

Row | IC50 (Sortilin/Progranulin [1]) | Structure (SMILES) | other results
24 | 2.3 µM | O=C(N[C@@H](CC1CCCCC1)C(=O)O)c1cc(Cl)cc(Cl)c1 | –
25 | > 67 µM | CC(OC(C)(C)C)[C@H](NC(=O)c1cc(Cl)cc(Cl)c1)C(=O)O (stereo not given in full) | –
26 | 0.35 µM | CC(C)(C)C[C@H](NC(=O)c1cc(Cl)cc(Cl)c1)C(=O)O | –
27 | 17.1 µM | C=C(C)C[C@H](NC(=O)c1cc(Cl)cc(Cl)c1)C(=O)O | –
28 | 2.7 µM | CC(C)C[C@H](NC(=O)c1cc(Cl)cc(Cl)c1)C(=O)O | –
29 | 10.7 µM | O=C(N[C@@H](CC1CC1)C(=O)O)c1cc(Cl)cc(Cl)c1 | –
30 | 18 µM | O=C(N[C@@H](CC12CC(C1)C2)C(=O)O)c1cc(Cl)cc(Cl)c1 | –
31 | 4.5 µM | CC(C)C[C@H](NC(=O)c1cccc(Cl)c1)C(=O)O | –
32 | 1.5 µM | CC(C)(C)OC[C@H](NC(=O)c1cc(Cl)cc(Cl)c1)C(=O)O | –
33 | 4.3 µM | CC(C)C[C@H](NC(=O)c1ccc(Cl)c(Cl)c1)C(=O)O | –
34 | > 67 µM | O=C(N[C@@H](Cc1ccccc1)C(=O)O)c1cc(Cl)cc(Cl)c1 | –
